Data set [1] concerns MiaPaca-2. Briefly: MTT cytotoxicity. The class given is cell-based. Conditions: Homo sapiens, MIA PaCa-2; MiaPaca-2, MTT, 48 hours, 100 μM concentration range. The protocol: (§1) 5×10^3 cells were seeded/well in a 96 well plate and treated with Compounds (1-3) for 48 hours with 100 μM concentration range to a panel of cancer cell lines. After 44 hour MTT with final concentration of 0.5 mg/ml were added to cells and incubated for 4 hour at 37° C. until formazon crystals are formed. MTT was removed and formazon crystals were lysed by DMSO for 30 minutes at 37° C., the absorbance was measured at 570 nm and the IC50 values were calculated using graph pad prism.

For data set [2], the system named is HCT-116. Briefly: MTT cytotoxicity. Format: cell-based. Particulars: Homo sapiens; HCT-116, MTT, 48 hours, 100 μM concentration range. The protocol: as §1
Another data set deals with PC3. The data set can be described thus: MTT cytotoxicity. Particulars: Homo sapiens, PC-3, 48 hours, 100 μM concentration range. The class given is cell-based. The protocol: as §1
Another data set relates to Panc-1. The data set can be described thus: MTT cytotoxicity. The class given is cell-based. Particulars: Homo sapiens; Panc-1, MTT, 48 hours, 100 μM concentration range. The protocol: as §1
For the next data set, the system named is MDA-MB-231. Briefly: MTT cytotoxicity. Conditions: Homo sapiens; MDA-MB-231, MTT, 48 hours, 100 μM concentration range. Format: cell-based. The protocol:
as §1

The test system of data set [3] is HT-29. Briefly: MTT cytotoxicity. The class given is cell-based. Particulars: Homo sapiens; HT-29, MTT, 48 hours, 100 μM concentration range. The protocol:
as §1

The next data set can be described thus: MTT cytotoxicity. Particulars: human, FR2 cells, 100 μM concentration range. The class given is cell-based. The protocol: as §1
The test system of data set [4] is MCF-7. The data set can be described thus: MTT cytotoxicity. Conditions: Homo sapiens, MCF7; MCF-7, MTT, 48 hours, 100 μM concentration range. Format: cell-based. The protocol:
as §1

For a further data set, the system named is A549. The data set can be described thus: MTT cytotoxicity. The class given is cell-based. Conditions: Homo sapiens, 48 hours, 100 μM concentration range. The protocol: as §1
The test system of a further data set is Micrococcus luteus. The data set can be described thus: MIC, microtiter broth dilution. Format: cell-based. Conditions: dilutions 2-500 μg/ml, overnight 37° C. The protocol:
(§2) The minimum inhibitory concentrations (MIC) of purified compound showing significant zones of inhibition in the preliminary antimicrobial assay using agar well diffusion method were evaluated. MIC assay was carried out by a microtiter broth dilution method with some modifications. Stock solution of each pathogen was prepared in normal saline solution i.e. 0.85% NaCl (w/v) at a concentration of 10^8 cells/ml and finally diluted with respective growth media to give approximately 10^5 CFU/ml for all organisms. Different dilutions of compound was prepared (2-500 μg/ml) by serial dilutions. 100 μl of each concentration (2-500 μg/ml) of the compound was loaded onto each well and was mixed with 100 μl of diluted pathogens containing 10^5 CFU/ml. […] The microtitre plates were then incubated overnight at 37° C. for bacterial pathogens and 28° C. for fungal pathogens and were analysed after incubation.

The test system of the next data set is Bacillus subtilis. The data set can be described thus: MIC, microtiter broth dilution. Format: cell-based. Conditions: dilutions 2-500 μg/ml, overnight 37° C. The protocol: as §2
The test system of the next data set is Bacillus cereus. The data set can be described thus: MIC, microtiter broth dilution. Format: cell-based. Conditions: dilutions 2-500 μg/ml, overnight 37° C. The protocol:
as §2

In a further data set the test system is Staphylococcus aureus. The data set can be described thus: MIC, microtiter broth dilution. The class given is cell-based. Particulars: dilutions 2-500 μg/ml, overnight 37° C. The protocol:
as §2

Data set [5] relates to HCT-116. Briefly: Colony formation assay. The class given is cell-based. Particulars: HCT-116, concentrations nearby the IC50, 5 days. The protocol:
(§3) Colony formation assay was performed to further certify the antiproliferative properties of setomimycin in four different cancer cell lines viz. HT-29, MiaPaca-2, HCT-116 and MCF-7. Cells were seeded onto 6 well plates at seeding density 1×10^3 fells/well and treated with increasing concentration of setomimycin nearby the IC50 values for 5 days. Upon termination the cells were stained with 0.1% crystal violet for 20-30 minutes and washed with dH2O thoroughly. The images were taken from plates with NIKON camera (D3100). Average colonies (n=3) were quantified from different fields. Bar graphs represent the number of colonies (n=3, error bars indicate ±SD).

In data set [6] the test system is HT-29. Briefly: Colony formation assay. Format: cell-based. Particulars: HT-29, concentrations nearby the IC50, 5 days. The protocol: as §3
The subject of data set [7] is MCF-7. The data set can be described thus: Colony formation assay. Conditions: MCF-7, concentrations nearby the IC50, 5 days. Format: cell-based. The protocol: as §3
The next data set concerns BCL-2. The data set can be described thus: Western blotting. Format: cell-based. Particulars: HCT-116 and MCF-7 cells, 48 h. The protocol:
(§4) FIG. 5 Illustrates effect of setomimycin (Compound-3) pro-proliferative and anti-apoptotic protein targets in cancer cells: (A-B) Immunoblot analysis of ERK, p-MEK, Par-4, BCL-2 and β-actin in HCT-116 and MCF-7 cells treated with setomimycin for 48 h. (C-D) Densitometry analysis showing relative protein expression for the western blots presented Strong active potential of setomimycin against tumor cell proliferation and migration at nearby concentration of IC50 values was depicted by MTT data. Further, molecular docking studies predicted the strong affinity of setomimycin targeting MEK pathway. ERK and MEK are the major signaling pathways regulating cancer cell proliferation, differentiation and apoptosis. Therefore, Western blotting was carried out to check the effects of Setomimycin on ERK and MEK proteins.

The test system of another data set is ERK. The data set can be described thus: Western blotting. Format: cell-based. Conditions: HCT-116 and MCF-7 cells, 48 h. The protocol: as §4
For a further data set, the system named is Phospho MEK. The data set can be described thus: Western blotting. Format: cell-based. Conditions: HCT-116 and MCF-7 cells, 48 h, increasing concentration. The protocol: as §4
A further data set deals with Par-4. The data set can be described thus: Western blotting. The class given is cell-based. Conditions: HCT-116 and MCF-7 cells, 48 h. The protocol: as §4
Data set [8] deals with MiaPaca-2. Briefly: Colony formation assay. The class given is cell-based, human. Particulars: MiaPaca-2, concentrations nearby the IC50, 5 days. The protocol: as §3
A further data set deals with Sarcoma-180. Particulars: Sarcoma-180 mouse solid tumor model, 200 mg/kg per day for seven days; cited from earlier work.
The test system of data set [9] is HCT-116. The data set can be described thus: Transwell invasion assay. The class given is cell-based. Particulars: HCT-116, 48 hours, increasing concentration. The protocol:
(§5) The above results depict significant antiproliferative effects of setomimycin in different cell lines near IC50 values. Transwell invasion assay was performed to check the anti-invasive properties of setomimycin. […] (A-B) 1.2×10^6 HCT-116 and MCF-7 cells were seeded in the upper chamber of inserts in serum free medium and treated with indicated concentration of setomimycin for 48 hours. (After 48 hours the invaded cells from lower insert were fixed with ice cold methanol and stained with 0.1% crystal violet for 20-30 minutes. After staining the inserts were washed with dH2O thoroughly and cells from three different fields in each treated condition were counted and photographed under an inverted microscope (20× magnifications). (C-D) Bar graph representing the number of invaded cells (n=3, error bars indicate ±SD).

The subject of data set [10] is MCF-7. Briefly: Transwell invasion assay. Conditions: MCF-7, 48 hours, increasing concentration. The class given is cell-based. The protocol: as §5
The test system of data set [11] is Gram positive bacteria i.e. S. aureus, B. subtilis, B. cereus, and M. smegmatis. Particulars: literature 1978; cited from earlier work.
In data set [12] the test system is MiaPaca-2. Briefly: Scratch assay (migration). Format: cell-based, human. Conditions: MiaPaca-2, concentrations within the range of IC50. The protocol: (§6) Scratch assay was performed in the panel of cancer cell lines with varying degree of invasive and migratory capabilities as shown in FIG. 4. Our results unveiled that setomimycin inhibited the migratory potential of all the cell lines treated with different concentration of setomimycin within the range of their IC50 values. […] 5×10^5 cells were seeded onto 6 well plate and grown upto more than 90% confluency. After the proper attachment of cells wounds were created with the help of a 20-200 μL sterile pipette tip. Subsequently the cells were treated with indicated concentration of setomimycin and vehicle (DMSO). The images were taken under inverted microscope at 20× magnification.

Data set [13] has as its system HCT-116. Briefly: Scratch assay (migration). Format: cell-based. Conditions: HCT-116, concentrations within the range of IC50. The protocol: as §6
The test system of data set [14] is HT-29. Briefly: Scratch assay (migration). The class given is cell-based. Conditions: HT-29, concentrations within the range of IC50. The protocol:
as §6

The subject of data set [15] is MCF-7. Briefly: Scratch assay (migration). The class given is cell-based. Conditions: MCF-7, concentrations within the range of IC50. The protocol:
as §6

pIC50: −log10 of the molar value.

Consider `CC(=O)[C@H]1c2cc3cccc(O)c3c(O)c2C(=O)C[C@]1(C)O` [Compound-1], for which the pIC50 was 4.90 in the data set on MiaPaca-2 [1]; 4.98 with HCT-116 [2]; 4.83 in the data set with PC3; 4.81 in the data set on Panc-1; 4.87 with MDA-MB-231; 5.06 in the data set with HT-29 [3]. The negative logarithm of the IC50 (pIC50) in the data set on MCF-7 [4] was 5.02; in the data set on A549 it was 4.41. Moreover, the 50% inhibitory concentration (IC50) at 48 h in “MTT cytotoxicity” stood at 48.7 µM. In addition, the “Minimum Inhibitory Concentration” value was 6 with Micrococcus luteus, 12 in the data set with Bacillus subtilis, 12 in the data set with Bacillus cereus and 25 in the data set with Staphylococcus aureus.

In the case of `CC(=O)[C@H]1c2c(c(O)c3c(O)cccc3c2-c2c3c(c(O)c4c(O)cccc24)C(=O)C[C@](C)(O)[C@H]3C(C)=O)C(=O)C[C@]1(C)O` [Compound-2], the pIC50 was 5.08 with MiaPaca-2 [1]; 4.72 in the data set with HCT-116 [2]; 4.76 in the data set with PC3; 4.67 in the data set with Panc-1; 4.90 with MDA-MB-231; 4.81 in the data set with HT-29 [3]. Further, the values for the pIC50 in the data set with MCF-7 [4] and in the data set with A549 were 4.95 and 4.41, respectively. Besides, in the data set “MTT cytotoxicity”, the midpoint of inhibition, the IC50 at 48 h, lay at 62.3 µM. Besides, the “Minimum Inhibitory Concentration” value was found to be 4 in the data set with Micrococcus luteus, 6 in the data set on Bacillus subtilis, 6 in the data set with Bacillus cereus and 12 in the data set on Staphylococcus aureus.

On to `CC(=O)[C@@H]1C(C)=CC(=O)c2c1c(-c1c3c(c(O)c4c(O)cccc14)C(=O)C[C@](C)(O)[C@H]3C(C)=O)c1cccc(O)c1c2O` [Compound-3, Setomimycin], for which the pIC50 in the data set with MiaPaca-2 [1] was 5.34; with HCT-116 [2], 5.28; in the data set with PC3, 5.15; in the data set on Panc-1, 4.32; in the data set on MDA-MB-231, 5.12; in the data set with HT-29 [3], 5.38. In addition, the pIC50 with MCF-7 [4] is 5.16; in the data set with A549, 4.94. Further, the concentration for half-maximal inhibition (IC50) at 48 h in the data set “MTT cytotoxicity” amounted to 53.3 µM. For the same molecule, the “Antiproliferative effect, colony formation” value in the data set on HCT-116 [5], in the data set on HT-29 [6], in the data set with MCF-7 [7] and in the data set on MiaPaca-2 [8] was “promising results near the IC50 values” each time. Besides, the “Minimum Inhibitory Concentration” value was 8 in the data set with Micrococcus luteus, 16 with Bacillus subtilis, 4 in the data set on Bacillus cereus and 8 in the data set with Staphylococcus aureus. Also, the “BCL-2 (antiapoptotic protein) expression, Western blot” value with BCL-2 is “downregulated”. In the data set with ERK, the “ERK protein expression, Western blot” value is listed as “downregulation”. Also, in the data set on Phospho MEK, the “Phospho MEK expression, Western blot” value is given as “down regulated”. Moreover, the “Par-4 (pro-apoptotic protein) expression, Western blot” value in the data set with Par-4 is reported as “upregulated”. Also, the Tumor growth result in the data set on Sarcoma-180 is “reduce tumor growth”. Further, the “Invasion of cells, transwell” value in the data set with HCT-116 [9] and in the data set with MCF-7 [10] was “significantly inhibited” in each case. The “Activity against Gram positive bacteria” value in data set [11] is given as “active”. The “Cell migration, scratch assay” value in the data set with MiaPaca-2 [12], in the data set on HCT-116 [13], with HT-29 [14] and in the data set with MCF-7 [15] was “inhibited the cell migration” throughout.

(Values after patent US20250230477A1, “A PROCESS FOR THE PREPARATION OF TETRAHYDROANTHRACENES FROM STREPTOMYCES SPP. AND ANTICANCER ACTIVITY THEREOF” (Council of Scientific and Industrial Research, priority 2021, published 2025).)
